Key:
Assay type in all cases: biochemical
Conditions in all cases: isolated kinase, 33P-ATP, 2 h
IRAK1 = IRAK1 (Homo sapiens, UniProt P51617); assay: RBC HotSpot kinase inhibition assay, IRAK1
Procedure, shortened: (§1)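 Isolated kinases, possibly truncated or lacking regulatory receptor domains, in 20 mM Hepes pH 7.5, 10 mM MgCl2, 1 mM EGTA, 0.01% Brij35, 2 mM DTT, 1% DMSO with substrate and cofactors. Compound preincubated 20 min, then ^33P-ATP added; 2 h at room temperature, read by P81 filter binding.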

FLT3 = molecular target: T1, FLT3 (Homo sapiens, UniProt P36888); assay: RBC HotSpot kinase inhibition assay, FLT3
T1 sequence (P36888 27-993): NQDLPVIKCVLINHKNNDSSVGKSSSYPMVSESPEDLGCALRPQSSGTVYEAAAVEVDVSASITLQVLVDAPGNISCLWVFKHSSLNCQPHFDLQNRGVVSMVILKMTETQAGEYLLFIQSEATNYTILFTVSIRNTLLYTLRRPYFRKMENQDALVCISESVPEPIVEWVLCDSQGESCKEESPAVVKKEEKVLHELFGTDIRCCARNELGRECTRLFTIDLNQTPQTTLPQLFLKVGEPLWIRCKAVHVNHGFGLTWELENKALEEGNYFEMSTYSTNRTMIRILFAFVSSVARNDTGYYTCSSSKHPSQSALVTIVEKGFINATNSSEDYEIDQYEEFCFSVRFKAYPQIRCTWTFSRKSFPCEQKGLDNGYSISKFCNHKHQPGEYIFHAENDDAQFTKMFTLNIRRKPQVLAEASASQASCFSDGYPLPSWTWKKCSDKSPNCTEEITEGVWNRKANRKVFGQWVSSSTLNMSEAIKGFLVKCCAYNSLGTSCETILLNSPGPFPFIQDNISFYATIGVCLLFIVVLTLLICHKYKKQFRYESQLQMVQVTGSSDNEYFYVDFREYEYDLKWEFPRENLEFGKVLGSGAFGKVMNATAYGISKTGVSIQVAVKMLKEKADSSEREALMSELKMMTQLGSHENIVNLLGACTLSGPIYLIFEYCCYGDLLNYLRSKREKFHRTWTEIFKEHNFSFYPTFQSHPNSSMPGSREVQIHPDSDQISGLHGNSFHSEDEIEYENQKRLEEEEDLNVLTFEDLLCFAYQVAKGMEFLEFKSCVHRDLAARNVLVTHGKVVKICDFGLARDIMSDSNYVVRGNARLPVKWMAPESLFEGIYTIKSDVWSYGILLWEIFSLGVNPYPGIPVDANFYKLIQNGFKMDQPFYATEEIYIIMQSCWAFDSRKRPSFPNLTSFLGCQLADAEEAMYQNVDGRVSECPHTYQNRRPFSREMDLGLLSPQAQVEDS
Procedure, shortened: as §1

IRAK4 = molecular target: T2, IRAK4 (Homo sapiens, UniProt Q9NWZ3); assay: RBC HotSpot kinase inhibition assay, IRAK4
T2 sequence (Q9NWZ3 1-460): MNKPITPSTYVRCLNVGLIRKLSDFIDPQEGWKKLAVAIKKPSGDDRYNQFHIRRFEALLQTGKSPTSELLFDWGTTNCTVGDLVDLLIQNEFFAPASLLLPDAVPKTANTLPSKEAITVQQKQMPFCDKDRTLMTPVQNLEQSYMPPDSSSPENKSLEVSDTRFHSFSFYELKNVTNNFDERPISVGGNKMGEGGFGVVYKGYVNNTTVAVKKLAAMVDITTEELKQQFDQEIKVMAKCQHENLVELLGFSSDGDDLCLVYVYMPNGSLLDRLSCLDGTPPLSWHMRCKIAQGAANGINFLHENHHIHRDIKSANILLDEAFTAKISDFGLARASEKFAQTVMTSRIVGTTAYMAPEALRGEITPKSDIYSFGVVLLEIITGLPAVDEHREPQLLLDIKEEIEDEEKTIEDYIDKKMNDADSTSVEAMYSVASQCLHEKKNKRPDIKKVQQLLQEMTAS
Procedure, shortened: as §1

Chain of IRAK1 (P51617 whole entry, the tested form may be a part): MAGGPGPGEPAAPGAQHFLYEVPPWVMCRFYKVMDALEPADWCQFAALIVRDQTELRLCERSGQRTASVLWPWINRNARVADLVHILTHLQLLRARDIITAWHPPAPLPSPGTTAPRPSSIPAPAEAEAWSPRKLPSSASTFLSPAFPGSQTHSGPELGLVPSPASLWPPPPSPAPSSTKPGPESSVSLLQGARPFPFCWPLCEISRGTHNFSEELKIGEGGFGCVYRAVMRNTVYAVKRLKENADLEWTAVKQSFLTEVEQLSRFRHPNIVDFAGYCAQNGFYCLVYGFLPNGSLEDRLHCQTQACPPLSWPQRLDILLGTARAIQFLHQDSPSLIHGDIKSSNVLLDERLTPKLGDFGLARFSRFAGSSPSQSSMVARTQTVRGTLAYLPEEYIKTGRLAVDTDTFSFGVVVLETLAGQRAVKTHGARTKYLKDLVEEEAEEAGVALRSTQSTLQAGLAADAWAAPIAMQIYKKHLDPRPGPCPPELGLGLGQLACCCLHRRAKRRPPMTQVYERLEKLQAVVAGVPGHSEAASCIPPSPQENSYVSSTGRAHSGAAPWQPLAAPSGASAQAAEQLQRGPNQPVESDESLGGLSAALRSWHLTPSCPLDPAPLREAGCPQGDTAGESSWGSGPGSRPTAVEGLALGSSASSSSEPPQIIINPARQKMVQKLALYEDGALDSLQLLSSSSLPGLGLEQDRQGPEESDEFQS

| SMILES | IC50 (IRAK1; Table 17) | IC50 (FLT3; Table 17) | IC50 (IRAK4; Table 17) | IC50 (IRAK1; Table 11) | IC50 (FLT3; Table 11) | IC50 (IRAK4; Table 11) |
| --- | --- | --- | --- | --- | --- | --- |
| COc1cn2ncc(-c3cncc(N[C@H]4CNCC[C@@H]4F)n3)c2nc1C1CC1 [Compound 12a, 6-(5-cyclopropyl-6-methoxypyrazolo[1,5-a]pyrimidin-3-yl)-N-((3S,4S)-4-fluoropiperidin-3-yl)pyrazin-2-amine] | 6 nM | < 0.5 nM | 0.8 nM |  |  |  |
| COc1cn2ncc(-c3nc(N[C@H]4CNCC[C@@H]4F)c(F)cc3F)c2nc1C(C)(C)O [Compound 13, 2-(3-(3,5-difluoro-6-(((3S,4S)-4-fluoropiperidin-3-yl)amino)pyridin-2-yl)-6-methoxypyrazolo[1,5-a]pyrimidin-5-yl)propan-2-ol] |  |  |  | 7 nM | < 0.5 nM | 2 nM |
| COc1cn2ncc(-c3nc(N[C@H]4CNCC[C@@H]4F)c(C#N)cc3F)c2nc1C1CC1 [Compound 7, 6-(5-cyclopropyl-6-methoxypyrazolo[1,5-a]pyrimidin-3-yl)-5-fluoro-2-(((3S,4S)-4-fluoropiperidin-3-yl)amino)nicotinonitrile] |  |  |  | < 0.5 nM | < 0.5 nM | < 0.5 nM |
| COc1cn2ncc(-c3nc(N[C@@H]4CCCNC4)ccc3F)c2nc1C1CC1 [Compound 2, (R)-6-(5-cyclopropyl-6-methoxypyrazolo[1,5-a]pyrimidin-3-yl)-5-fluoro-N-(piperidin-3-yl)pyridin-2-amine] |  |  |  | 4 nM | < 0.5 nM | < 0.5 nM |
| COc1cn2ncc(-c3nc(N[C@H]4CNCC[C@@H]4F)ncc3F)c2nc1C1CC1 [Compound 15a, 4-(5-cyclopropyl-6-methoxypyrazolo[1,5-a]pyrimidin-3-yl)-5-fluoro-N-((3S,4S)-4-fluoropiperidin-3-yl)pyrimidin-2-amine] | < 0.5 nM | 0.7 nM | 0.7 nM |  |  |  |
| COc1cn2ncc(-c3cccc(N[C@H]4CNCC[C@@H]4F)n3)c2nc1C1CC1 [Compound 21, 6-(5-cyclopropyl-6-methoxypyrazolo[1,5-a]pyrimidin-3-yl)-N-((3S,4S)-4-fluoropiperidin-3-yl)pyridin-2-amine] |  |  |  | 38 nM | < 0.5 nM | 2 nM |
| COc1cn2ncc(-c3cncc(N[C@@H]4CCCNC4)n3)c2nc1C1CC1 [Compound 11a, (R)-6-(5-cyclopropyl-6-methoxypyrazolo[1,5-a]pyrimidin-3-yl)-N-(piperidin-3-yl)pyrazin-2-amine] | 15 nM | < 0.5 nM | 1 nM |  |  |  |
| COc1cn2ncc(-c3nc(N[C@@H]4CCCNC4)c(F)cc3F)c2nc1C(C)(C)O [Compound 11, (R)-2-(3-(3,5-difluoro-6-(piperidin-3-ylamino)pyridin-2-yl)-6-methoxypyrazolo[1,5-a]pyrimidin-5-yl)propan-2-ol] |  |  |  | 3 nM | < 0.5 nM | 1 nM |
| COc1cn2ncc(-c3nc(N[C@H]4CNC[C@@H]4F)c(F)cc3F)c2nc1C(C)(C)O [Compound 12, 2-(3-(3,5-difluoro-6-(((3S,4S)-4-fluoropyrrolidin-3-yl)amino)pyridin-2-yl)-6-methoxypyrazolo[1,5-a]pyrimidin-5-yl)propan-2-ol] |  |  |  | 9 nM | < 0.5 nM | < 0.5 nM |
| COc1cn2ncc(-c3nc(N[C@H]4CNC[C@@H]4F)ncc3F)c2nc1C(C)(C)O [Compound 5a, 2-(3-(5-fluoro-2-(((3S,4S)-4-fluoropyrrolidin-3-yl)amino)pyrimidin-4-yl)-6-methoxypyrazolo[1,5-a]pyrimidin-5-yl)propan-2-ol] | 6 nM | < 0.5 nM | 0.7 nM |  |  |  |
